Values after ≈ are worked out from the molar mass of the structure shown. Where two headings read alike, the source gives them in different places.
Assays:
[1] = target: T1, Staphylococcus aureus FabI (SaFabI) (Staphylococcus aureus, UniProt Q6GI75); test: biochemical; assay type: biochemical
T1 sequence (Q6GI75 1-256): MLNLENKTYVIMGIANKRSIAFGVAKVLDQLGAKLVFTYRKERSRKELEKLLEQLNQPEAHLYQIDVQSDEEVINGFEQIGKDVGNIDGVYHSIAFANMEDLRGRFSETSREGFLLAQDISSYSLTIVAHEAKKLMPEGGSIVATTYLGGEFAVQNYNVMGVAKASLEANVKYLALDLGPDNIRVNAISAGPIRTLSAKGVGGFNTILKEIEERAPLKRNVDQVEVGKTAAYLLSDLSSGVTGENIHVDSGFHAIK

E. coli strain BW25113 = test: microbe, parasite or virus in culture; assay type: cell-based; settings: Escherichia coli, BW25113, read-out: MIC E. coli BW25113 WT
S. aureus strain RN4220 = test: microbe, parasite or virus in culture; assay type: cell-based; settings: Staphylococcus aureus, RN4220, read-out: MIC S. aureus RN4220 WT
[2] = system: F. tularensis (strain Utah); test: microbe, parasite or virus in culture; assay type: cell-based; settings: Francisella tularensis, read-out: MIC F. tularensis strain Utah
S. aureus strain Newman = test: MIC determination, S. aureus Newman; assay type: cell-based; settings: Staphylococcus aureus, read-out: MIC S. aureus Newman WT
[3] = target: Acinetobacter baumannii FabI (AbFabI) (Acinetobacter baumannii, UniProt A0ABX6CD96); test: biochemical; assay type: biochemical; settings: read-out: Enzyme inhibition or IC50 with AbFabl
[4] = system: E. coli tolC- (strain BW25113, efflux pump mutant); test: microbe, parasite or virus in culture; assay type: cell-based; settings: Escherichia coli, BW25113, read-out: MIC E. coli TolC-
[5] = 200 nM enzyme, 300 μM crotonyl-coenzymeA, 200 μM NADPH, pH 5.5, read-out: Enzyme inhibition or IC50 with SaFabl
[6] = TSB media, 37° C. overnight, first clear well

SMILES | IC50 [1, 5] | MIC (E. coli strain BW25113) | MIC (S. aureus strain RN4220) | MIC [2] | MIC (S. aureus strain Newman) | IC50 [3] | MIC [4] | IC50 ([3]; pH 5.5) | MIC (S. aureus strain Newman; [6]) | IC50 [1]
O=C(Cc1ccccc1Cl)N1CCC(c2ccc3c(c2)OCO3)C1 (centres unmarked) | 2.5 µM | > 200 µg/mL | 12.5 µg/mL (≈ 36.4 µM) | 25 µg/mL (≈ 72.7 µM) | 6.25 to 12.5 µg/mL (≈ 18.2 to 36.4 µM) | 3.7 µM |  |  |  | 
COc1ccc(C2CCN(C(=O)Cc3ccccc3Cl)C2)cc1 (centres unmarked) | 12.5 µM |  | 100 µg/mL (≈ 303 µM) | 12.5 µg/mL (≈ 37.9 µM) |  |  | 100 µg/mL (≈ 303 µM) |  |  | 
COc1ccccc1C1CCN(C(=O)Cc2cccc(F)c2F)C1 (centres unmarked) | 3 µM |  | 100 µg/mL (≈ 302 µM) | 50 µg/mL (≈ 151 µM) |  | 7.4 µM | > 200 µg/mL |  |  | 
CC(=O)Nc1ccc(/C=C/C(=O)N2CCC(c3ccc4c(c3)OCO4)C2)cn1 (centres unmarked) | 1.1 µM | > 100 µg/mL | > 200 µg/mL | > 200 µg/mL |  |  | > 100 µg/mL | 8.5 µM |  | 
O=C(Cc1ccccc1Cl)N1CCC(c2ccccn2)C1 (centres unmarked) | 18.4 µM |  | 100 µg/mL (≈ 332 µM) | 200 µg/mL (≈ 665 µM) |  |  | > 200 µg/mL | 30.7 µM |  | 
CC(=O)Nc1ccc(CC(=O)N2CCC(c3ccccc3)C2)cc1 (centres unmarked) |  |  | > 200 µg/mL | 200 µg/mL (≈ 620 µM) |  | > 100 µM | 200 µg/mL (≈ 620 µM) |  |  | 
COc1ccccc1C1CCN(C(=O)Cc2ccc(NC(C)=O)cc2)C1 (centres unmarked) |  |  | > 200 µg/mL | > 200 µg/mL |  | > 100 µM | > 200 µg/mL |  |  | 
CC(=O)Nc1ccc(CC(=O)N2CCC(c3ccc4c(c3)OCO4)C2)cc1 (centres unmarked) |  |  | > 200 µg/mL | > 200 µg/mL |  | > 100 µM | > 200 µg/mL |  |  | 
CC(=O)Nc1ccc(CC(=O)N2CCC(c3nccs3)C2)cc1 (centres unmarked) |  |  | > 200 µg/mL | > 200 µg/mL |  | > 100 µM | > 200 µg/mL |  |  | 
COc1ccccc1C1CCN(C(=O)/C=C/c2ccc(NC(C)=O)cc2)C1 (centres unmarked) |  |  | > 200 µg/mL | > 200 µg/mL |  |  | > 200 µg/mL |  |  | 
COc1ccccc1C1CCN(C(=O)Cc2c(F)cccc2F)C1 (centres unmarked) | 5.7 µM |  | 50 to 100 µg/mL (≈ 151 to 302 µM) | 50 to 100 µg/mL (≈ 151 to 302 µM) |  | 1.6 µM | > 200 µg/mL |  | 50 to 100 µg/mL (≈ 151 to 302 µM) | 
COc1ccc(C2CCN(C(=O)Cc3ccc(NC(C)=O)cc3)C2)cc1 (centres unmarked) |  |  | > 200 µg/mL | > 200 µg/mL |  | > 100 µM | > 200 µg/mL |  |  | 
O=C(Cc1ccccc1F)N1CCC(c2ccc3c(c2)OCO3)C1 (centres unmarked) | 2.7 µM |  | > 200 µg/mL | 25 to 50 µg/mL (≈ 76.4 to 153 µM) |  |  | > 200 µg/mL | 32 µM |  | 
COc1ccc(C2CCN(C(=O)/C=C/c3ccc(NC(C)=O)nc3)C2)cc1 (centres unmarked) |  |  | > 200 µg/mL | > 200 µg/mL |  | > 100 µM | > 200 µg/mL |  |  | 3.55 µM
O=C(Cc1c(F)cccc1F)N1CCC(c2ccccc2)C1 (centres unmarked) | 1.9 µM |  | 50 µg/mL (≈ 166 µM) | 50 µg/mL (≈ 166 µM) |  | 6.9 µM | > 200 µg/mL |  | 50 to 100 µg/mL (≈ 166 to 332 µM) | 
O=C(Cc1ccccc1Cl)N1CCC(c2nccs2)C1 (centres unmarked) | 6 µM |  | 50 µg/mL (≈ 163 µM) | 200 µg/mL (≈ 652 µM) |  | 14 µM | > 100 µg/mL |  |  | 
CC(=O)Nc1ccc(/C=C/C(=O)N2CCC(c3ccccc3)C2)cn1 (centres unmarked) | 1.2 µM | > 200 µg/mL | > 200 µg/mL | > 200 µg/mL |  |  | 12.5 µg/mL (≈ 37.3 µM) | 0.47 µM |  | 
O=C(Cc1c(F)cccc1Cl)N1CCC(c2ccc3c(c2)OCO3)C1 (centres unmarked) | 1.8 µM |  | 25 µg/mL (≈ 69.1 µM) | 25 µg/mL (≈ 69.1 µM) |  | > 100 µM | > 200 µg/mL |  |  | 
COc1ccccc1C1CCN(C(=O)/C=C/c2ccc(NC(C)=O)nc2)C1 (centres unmarked) | 3.5 µM | > 200 µg/mL | 12.5 to 25 µg/mL (≈ 34.2 to 68.4 µM) | 12.5 µg/mL (≈ 34.2 µM) | 12.5 to 25 µg/mL (≈ 34.2 to 68.4 µM) |  | 0.75 µg/mL (≈ 2.05 µM) | 0.42 µM |  | 
COc1ccccc1C1CCN(C(=O)Cc2ccccc2Cl)C1 (centres unmarked) | 0.5 µM |  | 12.5 to 25 µg/mL (≈ 37.9 to 75.8 µM) | 50 µg/mL (≈ 152 µM) |  | 0.88 µM | > 200 µg/mL |  |  | 
CC(=O)Nc1ccc(/C=C/C(=O)N2CCC(c3nccs3)C2)cn1 (centres unmarked) | 4.5 µM | > 100 µg/mL | > 100 µg/mL | > 100 µg/mL |  | 10 to 20 µM | > 100 µg/mL |  |  | 
O=C(Cc1c(F)cccc1F)N1CCC(c2ccc3c(c2)OCO3)C1 (centres unmarked) | 2.3 µM |  | > 200 µg/mL | > 200 µg/mL |  |  | > 200 µg/mL | 54 µM |  | 
COc1ccccc1C1CCN(C(=O)Cc2ccccc2F)C1 (centres unmarked) | 4.6 µM |  | 50 to 100 µg/mL (≈ 160 to 319 µM) | 50 to 100 µg/mL (≈ 160 to 319 µM) |  | 1.9 µM | > 200 µg/mL |  | 50 to 100 µg/mL (≈ 160 to 319 µM) | 
CC(=O)Nc1ccc(/C=C/C(=O)N2CCC(c3ccccn3)C2)cn1 (centres unmarked) | 28.4 µM | > 100 µg/mL | > 100 µg/mL | > 100 µg/mL |  | 5 µM | 100 µg/mL (≈ 297 µM) |  |  | 
CC(C)S(=O)(=O)c1ccc(CC(=O)N2CCC(c3ccc4c(c3)OCO4)C2)cc1 (centres unmarked) |  |  | > 200 µg/mL | 100 µg/mL (≈ 241 µM) |  | > 100 µM | > 200 µg/mL |  |  | 
O=C(Cc1cccc(F)c1F)N1CCC(c2ccc3c(c2)OCO3)C1 (centres unmarked) | 5.5 µM |  | 100 µg/mL (≈ 290 µM) | 25 µg/mL (≈ 72.4 µM) |  |  | > 200 µg/mL | 13.7 µM |  | 
O=C(Cc1ccccc1Cl)N1CCC(c2ccccc2)C1 (centres unmarked) | 10.7 µM | > 200 µg/mL | 12.5 µg/mL (≈ 41.7 µM) | 25 µg/mL (≈ 83.4 µM) | 12.5 to 25 µg/mL (≈ 41.7 to 83.4 µM) |  |  | 3.1 µM |  | 
O=C(Cc1ccccc1F)N1CCC(c2ccccc2)C1 (centres unmarked) | 5 µM |  | 50 µg/mL (≈ 176 µM) | 50 µg/mL (≈ 176 µM) |  | 2.5 µM | > 200 µg/mL |  | 50 to 100 µg/mL (≈ 176 to 353 µM) | 
O=C(Cc1cccc(F)c1F)N1CCC(c2ccccc2)C1 (centres unmarked) | 7.3 µM |  | 50 µg/mL (≈ 166 µM) | 25 to 50 µg/mL (≈ 83 to 166 µM) |  | 9.3 µM | > 200 µg/mL |  | 50 to 100 µg/mL (≈ 166 to 332 µM) | 
